This is an account of results in US7429660B2, “ATM inhibitors” (Kudos Pharmaceuticals Limited, priority 2003, dated 2008).

T1 sequence (Q13315 whole entry): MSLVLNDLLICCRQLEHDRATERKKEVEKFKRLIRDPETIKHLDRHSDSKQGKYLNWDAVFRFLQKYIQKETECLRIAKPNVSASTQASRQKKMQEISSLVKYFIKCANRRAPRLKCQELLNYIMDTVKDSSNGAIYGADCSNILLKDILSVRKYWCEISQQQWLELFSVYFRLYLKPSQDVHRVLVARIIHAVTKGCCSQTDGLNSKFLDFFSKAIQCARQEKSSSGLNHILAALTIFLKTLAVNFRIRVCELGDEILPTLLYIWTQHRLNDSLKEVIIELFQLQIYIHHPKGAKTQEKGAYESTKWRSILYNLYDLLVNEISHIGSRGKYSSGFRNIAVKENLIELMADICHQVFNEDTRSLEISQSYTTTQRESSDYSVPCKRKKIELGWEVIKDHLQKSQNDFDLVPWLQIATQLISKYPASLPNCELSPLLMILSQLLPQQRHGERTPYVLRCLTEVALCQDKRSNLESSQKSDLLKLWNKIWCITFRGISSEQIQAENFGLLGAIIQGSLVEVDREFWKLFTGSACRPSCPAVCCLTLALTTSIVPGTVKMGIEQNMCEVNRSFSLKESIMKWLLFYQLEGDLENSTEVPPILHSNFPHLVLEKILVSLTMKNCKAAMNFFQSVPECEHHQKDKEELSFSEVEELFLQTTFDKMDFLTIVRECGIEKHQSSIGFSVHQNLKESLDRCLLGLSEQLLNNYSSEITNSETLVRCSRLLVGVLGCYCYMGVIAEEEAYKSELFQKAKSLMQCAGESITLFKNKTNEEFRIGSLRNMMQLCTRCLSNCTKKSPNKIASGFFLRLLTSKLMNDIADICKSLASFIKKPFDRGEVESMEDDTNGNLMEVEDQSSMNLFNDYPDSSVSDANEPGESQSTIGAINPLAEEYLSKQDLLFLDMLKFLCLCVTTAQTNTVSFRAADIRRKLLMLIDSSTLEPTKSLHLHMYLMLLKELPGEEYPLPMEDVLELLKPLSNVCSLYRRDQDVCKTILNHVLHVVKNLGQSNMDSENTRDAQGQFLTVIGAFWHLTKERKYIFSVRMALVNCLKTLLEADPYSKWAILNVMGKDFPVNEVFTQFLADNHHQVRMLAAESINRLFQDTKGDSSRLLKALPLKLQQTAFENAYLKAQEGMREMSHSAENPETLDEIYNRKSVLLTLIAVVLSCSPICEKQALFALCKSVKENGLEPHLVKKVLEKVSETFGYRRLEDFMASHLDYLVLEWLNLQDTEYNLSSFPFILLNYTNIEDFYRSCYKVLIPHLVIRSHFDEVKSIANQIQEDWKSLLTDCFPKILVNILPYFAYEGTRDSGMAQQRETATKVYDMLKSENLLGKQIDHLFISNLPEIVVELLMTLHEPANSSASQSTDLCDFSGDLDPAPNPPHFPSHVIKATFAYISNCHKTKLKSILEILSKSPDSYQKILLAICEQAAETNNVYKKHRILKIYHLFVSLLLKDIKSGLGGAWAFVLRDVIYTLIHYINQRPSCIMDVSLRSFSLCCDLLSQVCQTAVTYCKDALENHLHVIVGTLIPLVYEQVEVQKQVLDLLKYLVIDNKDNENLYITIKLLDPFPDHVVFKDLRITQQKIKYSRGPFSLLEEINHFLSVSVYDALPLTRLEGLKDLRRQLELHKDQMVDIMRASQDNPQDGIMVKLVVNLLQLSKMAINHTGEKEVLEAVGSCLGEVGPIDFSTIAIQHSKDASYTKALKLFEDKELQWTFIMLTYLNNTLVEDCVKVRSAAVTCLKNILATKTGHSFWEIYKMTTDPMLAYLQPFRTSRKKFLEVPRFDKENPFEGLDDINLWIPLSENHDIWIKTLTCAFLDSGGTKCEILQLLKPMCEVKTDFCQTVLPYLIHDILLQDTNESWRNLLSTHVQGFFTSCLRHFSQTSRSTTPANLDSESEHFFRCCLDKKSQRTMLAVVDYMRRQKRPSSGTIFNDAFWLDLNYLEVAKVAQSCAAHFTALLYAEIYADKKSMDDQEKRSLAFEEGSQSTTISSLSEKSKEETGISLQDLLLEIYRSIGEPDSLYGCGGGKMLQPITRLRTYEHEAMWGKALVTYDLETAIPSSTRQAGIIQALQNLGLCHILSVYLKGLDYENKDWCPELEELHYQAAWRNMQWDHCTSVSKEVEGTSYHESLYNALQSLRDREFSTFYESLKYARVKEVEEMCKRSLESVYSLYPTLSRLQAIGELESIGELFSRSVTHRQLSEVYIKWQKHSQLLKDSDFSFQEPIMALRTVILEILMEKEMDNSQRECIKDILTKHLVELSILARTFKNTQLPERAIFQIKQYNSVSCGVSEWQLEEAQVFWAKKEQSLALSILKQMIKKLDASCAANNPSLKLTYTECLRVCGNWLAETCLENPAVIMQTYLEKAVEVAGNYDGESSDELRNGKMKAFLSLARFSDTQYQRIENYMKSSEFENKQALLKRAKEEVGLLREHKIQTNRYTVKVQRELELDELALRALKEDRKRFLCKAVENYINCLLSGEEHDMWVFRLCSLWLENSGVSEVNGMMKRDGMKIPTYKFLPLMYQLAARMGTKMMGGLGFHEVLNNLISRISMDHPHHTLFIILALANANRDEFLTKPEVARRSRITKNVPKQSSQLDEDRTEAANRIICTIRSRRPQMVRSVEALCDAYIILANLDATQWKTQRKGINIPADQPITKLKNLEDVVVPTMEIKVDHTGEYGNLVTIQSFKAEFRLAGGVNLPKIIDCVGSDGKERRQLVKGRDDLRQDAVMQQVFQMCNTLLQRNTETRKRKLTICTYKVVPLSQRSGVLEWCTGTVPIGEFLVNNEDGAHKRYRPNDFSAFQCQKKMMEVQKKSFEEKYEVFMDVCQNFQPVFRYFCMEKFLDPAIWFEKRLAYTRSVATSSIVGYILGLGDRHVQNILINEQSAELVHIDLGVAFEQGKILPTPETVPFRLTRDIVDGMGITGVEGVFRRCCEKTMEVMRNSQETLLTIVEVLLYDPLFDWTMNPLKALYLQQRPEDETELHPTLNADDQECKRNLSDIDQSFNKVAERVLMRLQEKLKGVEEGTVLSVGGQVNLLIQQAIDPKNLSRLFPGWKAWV

This test concerns the target T1, ATM protein immunoprecipitated from HeLa cell nuclear extract (Homo sapiens, UniProt Q13315).
T1 construct: ATM protein was immunoprecipitated from HeLa cell nuclear extract; endogenous in cells; host or cells: HeLa cell nuclear extract (immunoprecipitated with rabbit polyclonal anti-ATM antiserum)
Kind of test: In vitro ATM inhibition assay (phosphorylation of GSTp53N66 on serine 15, chemiluminescent detection). Note: tested normally from 100 µM down to 0.1 nM. It counts as biochemical. As to conditions: read-out: IC50 values (the concentration at which 50% of the enzyme activity is inhibited), ATM inhibition. Here is the method: In order to assess the inhibitory action of the compounds against ATM in vitro, the following assay was used to determine IC50 values. ATM protein was immunoprecipitated from HeLa cell nuclear extract using rabbit polyclonal anti-sera raised to the C-terminal ˜500 amino-acid residues of the human ATM protein. […] 10 μl of immunoprecipitated ATM in Buffer C (50 mM Hepes, pH 7.4, 6 mM MgCl2, 150 mM NaCl, 0.1 mM sodium orthovanadate, 4 mM MnCl2, 0.1 mM dithiothreitol, 10% glycerol) was added to 32.5 μl of buffer C containing 1 μg of the ATM substrate GSTp53N66 in a V-bottomed 96 well polypropylene plate. The GSTp53N66 substrate is the amino terminal 66 amino acid residues of human wild type p53 fused to glutathione S-transferase. […] Varying concentrations of inhibitor were then added. […] After 10 minutes of incubation at 37° C., the reactions were initiated by the addition of 5 μl of 500 μM Na-ATP. After 1 hour with shaking at 37° C., 150 μl of phosphate buffered saline (PBS) was added to the reaction and the plate centrifuged at 1500 rpm for 10 minutes. 5 μl of the reaction was then transferred to a 96 well opaque white plate containing 45 μl of PBS to allow the GSTp53N66 substrate to bind to the plate wells. The plate was covered and incubated at room temperature for 1 hour with shaking before discarding the contents. The plate wells were washed twice by the addition of PBS prior to the addition of 3% (w/v) bovine serum albumin (BSA) in PBS. The plate was incubated at room temperature for 1 hour with shaking before discarding the contents and washing twice with PBS. To the wells, 50 μl of a 1:10,000 dilution of primary phosphoserine-15 antibody (Cell Signaling Technology, #9284L) in 3% BSA/PBS was added to detect the phosphorylation event on the serine 15 residue of p53 elicited by the ATM kinase. […] The wells were then washed four times with PBS before the addition of chemiluminescence reagent (NEN Renaissance, NEL105). The plate was then shaken briefly, covered with a transparent plate seal and transferred to a TopCount NXT for chemiluminescent counting. Counts per second, following a one second counting time, were recorded for each reaction.
The enzyme activity for each compound is then calculated using the following equation:
[formula] Results In vitro ATM assays
Compounds were assayed for ATM inhibition activity using the method described above. […] These are determined over a range of different concentrations, normally from 100 μM down to 0.1 nM. Such IC50 values are used as comparative values to identify increased compound potencies.
On to `O=C(Cc1cccs1)Nc1ccc2c(c1)Sc1cccc(-c3cc(=O)cc(N4CCOCC4)o3)c1S2` [Compound 33], for which the IC50 was less than 0.2 µM.

With `O=C(COc1ccc2c(c1)Cc1cccc(-c3cc(=O)cc(N4CCOCC4)o3)c1S2)N1CCOCC1` [Compound 494], the IC50 is less than 0.2 µM.

In the case of `O=c1cc(-c2cccc3c2Sc2ccc(S(=O)(=O)Nc4cccnc4)cc2C3)oc(N2CCOCC2)c1` [Compound 472], the IC50 was less than 0.2 µM.

For `O=c1cc(-c2cccc3c2Sc2ccccc2N3CCCNC2CCCCC2)oc(N2CCOCC2)c1` [Compound 251], the IC50 is less than 0.2 µM.

Regarding `COC(=O)CCC(=O)Nc1ccc2c(c1)Sc1cccc(-c3cc(=O)cc(N4CCOCC4)o3)c1S2` [Compound 41], the IC50 was less than 0.2 µM.

On to `O=C(COc1ccc2c(c1)Cc1cccc(-c3cc(=O)cc(N4CCOCC4)o3)c1S2)NCC1CCCO1` (stereo not shown) [Compound 497], for which the IC50 was less than 0.2 µM.

`C[C@@H]1CN(CCOc2ccc3c(c2)Sc2cccc(-c4cc(=O)cc(N5CCOCC5)o4)c2S3)C[C@H](C)O1` [Compound 359]: the IC50 is less than 0.2 µM.

For the molecule `O=c1cc(-c2cccc3c2Sc2ccc(S(=O)(=O)NCC(F)(F)F)cc2C3)oc(N2CCOCC2)c1` [Compound 454], the IC50 was less than 0.2 µM.

In the case of `O=C(CCNCC1CCCO1)Nc1ccc2c(c1)Sc1cccc(-c3cc(=O)cc(N4CCOCC4)o3)c1S2` (stereo not shown) [Compound 107], the IC50 is less than 0.2 µM.

As to `O=C(CN1CCN(c2ccccn2)CC1)Nc1ccc2c(c1)Cc1cccc(-c3cc(=O)cc(N4CCOCC4)o3)c1S2` [Compound 343], the IC50 was less than 0.2 µM.

With `O=c1cc(-c2cccc3c2Sc2ccccc2N3CCCN2CCN(c3ccccc3F)CC2)oc(N2CCOCC2)c1` [Compound 297], the IC50 was less than 0.2 µM.

With `O=c1cc(-c2cccc3c2Sc2ccc(OCCN4CCOCC4)cc2S3)oc(N2CCOCC2)c1` [Compound 403], the IC50 was less than 0.2 µM.

On to `CN1CCN(C(=O)COc2ccc3c(c2)Sc2cccc(-c4cc(=O)cc(N5CCOCC5)o4)c2S3)CC1` [Compound 450], for which the IC50 was less than 0.2 µM.

In the case of `O=C(CN1CCCCC1)Nc1ccc2c(c1)Sc1cccc(-c3cc(=O)cc(N4CCOCC4)o3)c1S2` [Compound 52], the IC50 is less than 0.2 µM.

Consider `CN(C)CCN(C)CCC(=O)Nc1ccc2c(c1)Sc1cccc(-c3cc(=O)cc(N4CCOCC4)o3)c1S2` [Compound 112], for which the IC50 is less than 0.2 µM.

Turning to `COC(=O)CCCC(=O)Nc1ccc2c(c1)Sc1cccc(-c3cc(=O)cc(N4CCOCC4)o3)c1S2` [Compound 26], the IC50 was less than 0.2 µM.

Take `O=c1cc(-c2cccc3c2Sc2ccccc2N3CCCN2CCCCCC2)oc(N2CCOCC2)c1` [Compound 260]: the IC50 is less than 0.2 µM.

With `O=c1cc(-c2cccc3c2Sc2ccccc2N3CCCNN2CCCCCC2)oc(N2CCOCC2)c1` [Compound 261], the IC50 was less than 0.2 µM.

Take `O=C(COc1ccc2c(c1)Cc1cccc(-c3cc(=O)cc(N4CCOCC4)o3)c1S2)NC[C@@H]1CCCCC[C@@H]1O` [Compound 513]: the IC50 is less than 0.2 µM.

`CC(C)NC(=O)CN1CCN(CCC(=O)Nc2ccc3c(c2)Sc2cccc(-c4cc(=O)cc(N5CCOCC5)o4)c2S3)CC1` [Compound 123]: the IC50 was less than 0.2 µM.

Regarding `CCN(CC)CCC(=O)Nc1ccc2c(c1)Sc1cccc(-c3cc(=O)cc(N4CCOCC4)o3)c1S2` [Compound 105], the IC50 is less than 0.2 µM.

For the molecule `O=C(c1ccc2c(c1)Sc1cccc(-c3cc(=O)cc(N4CCOCC4)o3)c1S2)N1CCN(C(=O)c2ccco2)CC1` [Compound 18], the IC50 was less than 0.2 µM.

With `O=c1cc(-c2cccc3c2Sc2ccc(S(=O)(=O)N4CCCCC4)cc2C3)oc(N2CCOCC2)c1` [Compound 485], the IC50 was less than 0.2 µM.

`O=c1cc(-c2cccc3c2Sc2ccc(S(=O)(=O)NCC4CCCO4)cc2C3)oc(N2CCOCC2)c1` (stereo not shown) [Compound 455]: the IC50 was less than 0.2 µM.

For `O=C(CCNCCN1CCNC1=O)Nc1ccc2c(c1)Sc1cccc(-c3cc(=O)cc(N4CCOCC4)o3)c1S2` [Compound 113], the IC50 is less than 0.2 µM.

With `O=C(CN1CCN(c2ncccn2)CC1)Nc1ccc2c(c1)Cc1cccc(-c3cc(=O)cc(N4CCOCC4)o3)c1S2` [Compound 345], the IC50 is less than 0.2 µM.

As to `O=C(COc1ccc2c(c1)Cc1cccc(-c3cc(=O)cc(N4CCOCC4)o3)c1S2)N1CCNCC1` [Compound 528], the IC50 is less than 0.2 µM.

For the molecule `O=C1NCCN1CCNCCCN1c2ccccc2Sc2c(-c3cc(=O)cc(N4CCOCC4)o3)cccc21` [Compound 287], the IC50 is less than 0.2 µM.

In the case of `O=c1cc(-c2cccc3c2Sc2ccc(S(=O)(=O)N(CCO)CCO)cc2C3)oc(N2CCOCC2)c1` [Compound 490], the IC50 is less than 0.2 µM.

In the case of `C[C@@H]1CN(S(=O)(=O)c2ccc3c(c2)Cc2cccc(-c4cc(=O)cc(N5CCOCC5)o4)c2S3)C[C@H](C)O1` [Compound 478], the IC50 is less than 0.2 µM.

In the case of `NC(=O)C1CCN(S(=O)(=O)c2ccc3c(c2)Cc2cccc(-c4cc(=O)cc(N5CCOCC5)o4)c2S3)CC1` [Compound 469], the IC50 is less than 0.2 µM.

On to `O=C(CNCCN1CCCCC1)Nc1ccc2c(c1)Sc1cccc(-c3cc(=O)cc(N4CCOCC4)o3)c1S2` [Compound 88], for which the IC50 is less than 0.2 µM.

Turning to `CN1CCCN(CCCN2c3ccccc3Sc3c(-c4cc(=O)cc(N5CCOCC5)o4)cccc32)CC1` [Compound 331], the IC50 was less than 0.2 µM.

As to `O=C(CCN1CCCNCC1)Nc1ccc2c(c1)Sc1cccc(-c3cc(=O)cc(N4CCOCC4)o3)c1S2` [Compound 100], the IC50 is less than 0.2 µM.

Consider `C=CCNS(=O)(=O)c1ccc2c(c1)Cc1cccc(-c3cc(=O)cc(N4CCOCC4)o3)c1S2` [Compound 462], for which the IC50 was less than 0.2 µM.

For the molecule `O=C(CCN1CCN(c2ccc(F)cc2)CC1)Nc1ccc2c(c1)Cc1cccc(-c3cc(=O)cc(N4CCOCC4)o3)c1S2` [Compound 354], the IC50 was less than 0.2 µM.

`CN1CCN(CC(=O)Nc2ccc3c(c2)Sc2cccc(-c4cc(=O)cc(N5CCOCC5)o4)c2S3)CC1` [Compound 54]: the IC50 is less than 0.2 µM.

Regarding `CCN1CCN(CCC(=O)Nc2ccc3c(c2)Sc2cccc(-c4cc(=O)cc(N5CCOCC5)o4)c2S3)CC1` [Compound 119], the IC50 is less than 0.2 µM.

Take `O=c1cc(-c2cccc3c2Sc2ccc(OCCN4CCN(c5ccccn5)CC4)cc2S3)oc(N2CCOCC2)c1` [Compound 399]: the IC50 was less than 0.2 µM.

With `CN(C)CCN1CCN(CC(=O)Nc2ccc3c(c2)Cc2cccc(-c4cc(=O)cc(N5CCOCC5)o4)c2S3)CC1` [Compound 347], the IC50 is less than 0.2 µM.

For `CC(=O)N1CCN(CC(=O)Nc2ccc3c(c2)Sc2cccc(-c4cc(=O)cc(N5CCOCC5)o4)c2S3)CC1` [Compound 77], the IC50 was less than 0.2 µM.

For the molecule `COCCN1CCN(CC(=O)Nc2ccc3c(c2)Cc2cccc(-c4cc(=O)cc(N5CCOCC5)o4)c2S3)CC1` [Compound 339], the IC50 is less than 0.2 µM.

Turning to `O=c1cc(-c2cccc3c2Sc2ccc(OCCNCCc4ccccn4)cc2S3)oc(N2CCOCC2)c1` [Compound 381], the IC50 was less than 0.2 µM.

In the case of `Nc1ccc2c(c1)Sc1cccc(-c3cc(=O)cc(N4CCOCC4)o3)c1S2` [Compound 21, 2-(7-Amino-thianthren-1-yl)-6-morpholin-4-yl-pyran-4-one], the IC50 was less than 0.2 µM.

In the case of `O=C(Nc1ccc2c(c1)Sc1cccc(-c3cc(=O)cc(N4CCOCC4)o3)c1S2)c1ccco1` [Compound 29], the IC50 was less than 0.2 µM.

Turning to `O=C(c1ccc2c(c1)Sc1cccc(-c3cc(=O)cc(N4CCOCC4)o3)c1S2)N1CCN(c2ncccn2)CC1` [Compound 13], the IC50 was less than 0.2 µM.

As for `C[C@@H]1COC[C@H](C)N1CCCOc1ccc(-c2cc(=O)cc(N3CCOCC3)o2)c2c1Sc1ccccc1S2` [Compound 181], the IC50 was less than 0.2 µM.

For `CC(=O)N1CCN(S(=O)(=O)c2ccc3c(c2)Cc2cccc(-c4cc(=O)cc(N5CCOCC5)o4)c2S3)CC1` [Compound 476], the IC50 was less than 0.2 µM.

Turning to `O=C(COc1ccc2c(c1)Sc1cccc(-c3cc(=O)cc(N4CCOCC4)o3)c1S2)NCCN1CCNC1=O` [Compound 441], the IC50 is less than 0.2 µM.

As for `O=C(COc1ccc2c(c1)Sc1cccc(-c3cc(=O)cc(N4CCOCC4)o3)c1S2)N(CCO)CCO` [Compound 444], the IC50 is less than 0.2 µM.

Regarding `CN(C)CCNCCCN1c2ccccc2Sc2c(-c3cc(=O)cc(N4CCOCC4)o3)cccc21` [Compound 282], the IC50 was less than 0.2 µM.

Consider `CN(C)CCN1CCN(CCC(=O)Nc2ccc3c(c2)Sc2cccc(-c4cc(=O)cc(N5CCOCC5)o4)c2S3)CC1` [Compound 124], for which the IC50 is less than 0.2 µM.
